US20110015162A1, “15,16-Methylene-17-hydroxy-19-nor-21-carboxylic acid-steroid Y-lactone derivative, use thereof and medicinal products containing the derivative” (Bayer Schering Pharma Aktiengesellschaft, priority 2007, published 2011)
Like-named read-outs stand apart in the source and are kept apart here.

Columns and labels:
progesterone receptor = target: T1, progesterone receptor (Homo sapiens, UniProt P06401); experiment: Progesterone receptor binding test; conditions: for Progesterone receptor (PR) Competition factor: CF 1 = affinity of progesterone, CF >1 lower affinity, <1 higher affinity; for CF PR/CF MR: ratio of competition factors CF(PR) and CF(MR)
T1 construct: made in house; host or cells: Hi5 insect cells (cytosol)
T1 sequence (P06401 1-933): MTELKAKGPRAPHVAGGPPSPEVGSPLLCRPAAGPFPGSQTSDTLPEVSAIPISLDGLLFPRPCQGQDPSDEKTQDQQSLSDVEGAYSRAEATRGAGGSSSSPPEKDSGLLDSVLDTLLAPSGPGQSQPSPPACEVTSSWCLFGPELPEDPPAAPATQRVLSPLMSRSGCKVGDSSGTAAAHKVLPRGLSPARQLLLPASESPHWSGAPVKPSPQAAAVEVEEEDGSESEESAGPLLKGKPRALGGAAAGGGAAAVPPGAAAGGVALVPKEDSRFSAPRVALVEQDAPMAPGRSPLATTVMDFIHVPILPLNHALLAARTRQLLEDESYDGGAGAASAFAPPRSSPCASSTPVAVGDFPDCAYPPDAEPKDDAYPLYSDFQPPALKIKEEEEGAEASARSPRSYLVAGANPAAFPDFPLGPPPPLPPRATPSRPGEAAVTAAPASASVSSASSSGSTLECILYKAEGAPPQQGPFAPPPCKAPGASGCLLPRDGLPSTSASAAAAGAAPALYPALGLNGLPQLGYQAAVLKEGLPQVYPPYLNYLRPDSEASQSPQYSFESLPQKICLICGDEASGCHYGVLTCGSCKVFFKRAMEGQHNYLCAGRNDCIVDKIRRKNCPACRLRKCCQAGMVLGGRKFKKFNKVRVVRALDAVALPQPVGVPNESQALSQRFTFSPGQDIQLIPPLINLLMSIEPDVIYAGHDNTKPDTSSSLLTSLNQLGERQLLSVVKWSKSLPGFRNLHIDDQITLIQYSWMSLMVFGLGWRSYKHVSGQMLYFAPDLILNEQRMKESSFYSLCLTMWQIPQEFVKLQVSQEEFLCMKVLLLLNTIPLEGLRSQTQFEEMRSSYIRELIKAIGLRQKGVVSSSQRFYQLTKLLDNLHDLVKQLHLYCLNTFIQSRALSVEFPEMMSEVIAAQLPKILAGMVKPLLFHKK
Protocol: 1. Progesterone Receptor Binding Test:
Using cytosol from progesterone receptor-expressing insect cells (Hi5), competitive binding to the progesterone receptor was determined from the ability to displace ^3H-progesterone as reference substance from the receptor.

[1] = target: T2, mineralocorticoid receptor (Homo sapiens, UniProt P08235); experiment: Antimineralocorticoid action by transactivation test (MDCK reporter cells); format: cell-based; design: expressed in transfected cells; host or cells: MDCK cells; conditions: for Emax: read-out: Mineralocorticoid receptor Antagonism efficacy;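 on Emax: percent inhibition of the aldosterone-stimulated reporter signal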;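 on Mineralocorticoid receptor Antagonism efficacy: percent inhibition of the aldosterone-stimulated reporter signal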
T2 sequence (P08235 1-984): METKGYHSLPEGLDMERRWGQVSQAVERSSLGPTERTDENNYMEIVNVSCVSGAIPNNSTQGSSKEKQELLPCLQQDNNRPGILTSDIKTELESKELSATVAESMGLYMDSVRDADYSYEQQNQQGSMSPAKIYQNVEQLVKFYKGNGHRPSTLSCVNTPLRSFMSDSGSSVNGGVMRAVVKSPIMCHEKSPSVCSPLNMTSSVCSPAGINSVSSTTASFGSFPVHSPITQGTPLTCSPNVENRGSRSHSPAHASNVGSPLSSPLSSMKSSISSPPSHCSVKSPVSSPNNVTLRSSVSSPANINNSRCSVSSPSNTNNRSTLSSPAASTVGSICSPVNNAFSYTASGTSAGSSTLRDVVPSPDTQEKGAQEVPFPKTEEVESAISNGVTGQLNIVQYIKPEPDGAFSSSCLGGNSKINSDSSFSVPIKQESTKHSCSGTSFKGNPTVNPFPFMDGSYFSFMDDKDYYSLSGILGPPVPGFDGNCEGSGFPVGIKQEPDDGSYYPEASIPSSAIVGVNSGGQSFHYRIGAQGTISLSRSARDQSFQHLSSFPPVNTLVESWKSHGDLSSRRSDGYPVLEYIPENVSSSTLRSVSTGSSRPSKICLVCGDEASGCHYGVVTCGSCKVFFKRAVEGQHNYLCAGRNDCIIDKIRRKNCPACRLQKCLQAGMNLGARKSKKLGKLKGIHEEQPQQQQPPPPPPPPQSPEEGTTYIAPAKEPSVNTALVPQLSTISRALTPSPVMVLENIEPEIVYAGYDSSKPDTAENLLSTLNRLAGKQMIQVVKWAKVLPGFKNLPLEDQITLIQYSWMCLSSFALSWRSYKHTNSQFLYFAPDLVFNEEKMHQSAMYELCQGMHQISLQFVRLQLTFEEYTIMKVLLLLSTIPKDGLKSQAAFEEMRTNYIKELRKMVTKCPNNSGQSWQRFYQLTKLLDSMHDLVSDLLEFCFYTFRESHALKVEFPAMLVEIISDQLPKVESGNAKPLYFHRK
Protocol: The test compounds were added eight hours later, and the cells were incubated with the compounds for 16 hours. The tests were carried out in triplicate. At the end of incubation the medium containing the effector was removed and replaced with lysis buffer. After luciferase assay substrate (Promega, #E1501) had been added, the 96-well plates were then put in a microplate luminometer (Pherastar, BMG Labtech), and the luminescence was measured. The IC50 values were evaluated using software for calculating dose-effect relations.
5. Determination of Antimineralocorticoid Action by Means of Transactivation Tests:
The antimineralocorticoid activity of the test substances was determined as for the transactivation tests described above.
The following modifications were undertaken: In this case reporter cell lines were used (MDCK cells) that express the human mineralocorticoid receptor, and transiently contain a reporter construct that contains luciferase under the control of a steroid hormone-responsive promoter.

[2] = MDCK cells, with 1 nM aldosterone, read-out: Mineralocorticoid receptor Antagonism IC50
[3] = MDCK cells, with 1 nM aldosterone

| Compound | IC50 (progesterone receptor) [nM] | Progesterone receptor (PR) Competition factor (progesterone receptor) | CF PR/CF MR (progesterone receptor) | IC50 [1] [nM] | Emax ([1]; MDCK) [%] | IC50 [1, 2] [nM] | Emax [1, 3] [%] | IC50 (progesterone receptor; displacement of 3H-progesterone, cytosol from PR-expressing insect cells (Hi5), read-out: Progesterone receptor (PR) IC50) [nM] |
| --- | --- | --- | --- | --- | --- | --- | --- | --- |
| C=C[C@@H]1CC2=CC(=O)CC[C@@H]2[C@H]2CC[C@@]3(CC)[C@@H]([C@@H]4C[C@@H]4[C@@]34C=CC(=O)O4)[C@@H]21 [Example 6A, 17β-Hydroxy-7α-vinyl-18-methyl-15β,16β-methylene-19-nor-17α-pregna-4,20(Z)-dien-3-one-21-carboxylic acid γ-lactone] | 120 | 4.85 | 3.23 | 9 | 102 |  |  |  |
| C[C@]12CC[C@H]3[C@H]([C@@H]1[C@H]1C[C@H]1[C@@]21C=CC(=O)O1)[C@H](C1CC1)CC1=CC(=O)CC[C@@H]13 [Example 17A, 17β-Hydroxy-7α-cyclopropyl-15α,16α-methylene-19-nor-17α-pregna-4,20(Z)-dien-3-one-21-carboxylic acid γ-lactone] | 280 | 12.24 | 4.71 | 89 | 115 |  |  |  |
| CC[C@]12CC[C@H]3[C@@H](C[C@@H](CO)C4=CC(=O)CC[C@@H]43)[C@@H]1[C@@H]1C[C@@H]1[C@@]21C=CC(=O)O1 [Example 10, 17β-Hydroxy-6β-hydroxymethylene-18-methyl-15β,16β-methylene-19-nor-17α-pregna-4,20(Z)-dien-3-one-21-carboxylic acid γ-lactone] |  | 4000.00 | inactive |  |  | 110 | 92.7 |  |
| C[C@@H]1CC2=CC(=O)CC[C@@H]2[C@H]2CC[C@@]3(C)[C@@H]([C@H]4C[C@H]4[C@@]34C=CC(=O)O4)[C@@H]21 [Example 14A, 17β-Hydroxy-7α-methyl-15α,16α-methylene-19-nor-17α-pregna-4,20(Z)-dien-3-one-21-carboxylic acid γ-lactone] | 49 | 2.04 | 1.57 | 3 | 83 |  |  |  |
| CC[C@@H]1CC2=CC(=O)CC[C@@H]2[C@H]2CC[C@@]3(C)[C@@H]([C@H]4C[C@H]4[C@@]34C=CC(=O)O4)[C@H]12 [Example 15A, 17β-Hydroxy-7α-ethyl-15α,16α-methylene-19-nor-17α-pregna-4,20(Z)-dien-3-one-21-carboxylic acid γ-lactone] | 200 | 8.36 | 10.45 | 12 | 112 |  |  |  |
| C[C@]12CC[C@H]3[C@@H](CCC4=C(Cl)C(=O)CC[C@@H]43)[C@@H]1[C@H]1C[C@H]1[C@@]21C=CC(=O)O1 [Example 18, 4-Chloro-17β-hydroxy-15α,16α-methylene-19-nor-17α-pregna-4,20(Z)-dien-3-one-21-carboxylic acid γ-lactone] | 400 | 17.24 | 0.49 | 830 | 37.3 |  |  |  |
| C[C@]12CC[C@H]3[C@@H](C=CC4=CC(=O)CC[C@@H]43)[C@@H]1[C@H]1C[C@H]1[C@@]21C=CC(=O)O1 [Example 13, 17β-Hydroxy-15α,16α-methylene-19-nor-17α-pregna-4,6,20(Z)-trien-3-one-21-carboxylic acid γ-lactone] |  | 7.89 | 4.93 |  |  | 12 | 116 | 190 |
| CC[C@]12CC[C@H]3[C@@H](C=CC4=CC(=O)CC[C@@H]43)[C@@H]1[C@@H]1C[C@@H]1[C@@]21C=CC(=O)O1 [Example 3, 17β-Hydroxy-18-methyl-15β,16β-methylene-19-nor-17α-pregna-4,6,20(Z)-trien-3-one-21-carboxylic acid γ-lactone] | 72 | 2.72 | 1.81 | 22 | 97.6 |  |  |  |
| CC[C@]12CC[C@H]3[C@@H]([C@@H]4C[C@@H]4C4=CC(=O)CC[C@@H]43)[C@@H]1[C@@H]1C[C@@H]1[C@@]21C=CC(=O)O1 [Example 2, 6α,7α;15β,16β-Bismethylene-17β-hydroxy-18-methyl-19-nor-17α-pregna-4,20(Z)-dien-3-one-21-carboxylic acid γ-lactone] | 630 | 24.37 | 5.54 | 230 | 112 |  |  |  |
| C[C@]12CC[C@H]3[C@@H](CCC4=C(Cl)C(=O)CC[C@@H]43)[C@@H]1[C@@H]1C[C@@H]1[C@@]21C=CC(=O)O1 [Example 27, 4-Chloro-17β-hydroxy-15β,16β-methylene-19-nor-17α-pregna-4,20(Z)-dien-3-one-21-carboxylic acid γ-lactone] | 2900 | 101.93 | 2.17 | 1000 | 5 |  |  |  |
| C[C@]12CC[C@H]3[C@@H](CCC4=CC(=O)CC[C@@H]43)[C@@H]1[C@H]1C[C@H]1[C@@]21C=CC(=O)O1 [Example 12, 17β-Hydroxy-15α,16α-methylene-19-nor-17α-pregna-4,20(Z)-dien-3-one-21-carboxylic acid γ-lactone] | 49 | 1.50 | 0.52 | 100 | 71.4 |  |  |  |
| CC[C@@H]1CC2=CC(=O)CC[C@@H]2[C@H]2CC[C@@]3(CC)[C@@H]([C@@H]4C[C@@H]4[C@@]34C=CC(=O)O4)[C@H]12 [Example 5A, 17β-Hydroxy-7α-ethyl-18-methyl-15β,16β-methylene-19-nor-17α-pregna-4,20(Z)-dien-3-one-21-carboxylic acid γ-lactone] | 300 | 12.00 | 12.00 |  |  |  |  |  |
